Measurements: patent US20020111274A1, “1-alkyl-3-[1-(substituted phenyl) benzotriazol-6-yl] uracils” (BASF Aktiengesellschaft, priority 2000, published 2002)

Tests used:
Set-up in all cases: scale not given here
ABUTH Velvetleaf [1] = test: Postemergence herbicidal evaluation, ABUTH; format: in vivo, Abutilon theophrasti, Medic.; settings: postemergence spray, rated about two-three weeks after treatment
Summary of the method: (§1)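 Ratings from greenhouse plants scored about two to three weeks after a foliar spray; data from multiple tests averaged. Seedlings about two weeks old received roughly 0.006–0.400 kg/ha active compound in 80/20 acetone/water with 1.0% methylated seed oil.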

AMBEL Ragweed, Common [2] = test: Postemergence herbicidal evaluation, AMBEL; format: in vivo, Ambrosia artemisifolia, L.; settings: postemergence spray, rated about two-three weeks after treatment
Summary of the method: as §1

CASOB Sicklepod [3] = test: Postemergence herbicidal evaluation, CASOB; format: in vivo, Cassia obtusifolia, L.; settings: postemergence spray, rated about two-three weeks after treatment
Summary of the method: as §1

[4] = tested on: CHEAL Lambsquarters, Common; test: Postemergence herbicidal evaluation, CHEAL; format: in vivo, Chenopodium album, L.; settings: postemergence spray, rated about two-three weeks after treatment
Summary of the method: as §1

ECHOG Barnyardgrass [5] = test: Postemergence herbicidal evaluation, ECHOG; format: in vivo, Echinochloa crus-galli, (L.) Beau; settings: postemergence spray, rated about two-three weeks after treatment
Summary of the method: as §1

GALAP Galium [6] = test: Postemergence herbicidal evaluation, GALAP; format: in vivo, Galium aparine; settings: postemergence spray, rated about two-three weeks after treatment
Summary of the method: as §1

[7] = tested on: IPOHE Morningglory, Ivyleaf; test: Postemergence herbicidal evaluation, IPOHE; format: in vivo, Ipomoea hederacea, (L.) Jacq.; settings: postemergence spray, rated about two-three weeks after treatment
Summary of the method: as §1

SETVI Foxtail, Green [8] = test: Postemergence herbicidal evaluation, SETVI; format: in vivo, Setaria viridis, (L.) Beau; settings: postemergence spray, rated about two-three weeks after treatment
Summary of the method: as §1

GLXMAW Soybean, Williams [9] = test: Postemergence herbicidal evaluation, GLXMAW; format: in vivo, Glycine max, (L.) Merr. cv Williams; settings: postemergence spray, rated about two-three weeks after treatment
Summary of the method: as §1

[10] = tested on: TRZAWR Wheat, Winter, cv Riband; test: Postemergence herbicidal evaluation, TRZAWR; format: in vivo, Triticum aestivum; settings: postemergence spray, rated about two-three weeks after treatment
Summary of the method: as §1

ORYSAT Rice, Tebonnet [11] = test: Postemergence herbicidal evaluation, ORYSAT; format: in vivo, Oryza sativa, (L.); settings: postemergence spray, rated about two-three weeks after treatment
Summary of the method: as §1

ZEAMX Corn, Field [12] = test: Postemergence herbicidal evaluation, ZEAMX; format: in vivo, Zea mays, L. (Sammel-Bezeichnung); settings: postemergence spray, rated about two-three weeks after treatment
Summary of the method: as §1

ABUTH Velvetleaf [13] = test: Preemergence herbicidal evaluation, ABUTH; format: in vivo, Abutilon theophrasti, Medic.; settings: preemergence
Summary of the method: (§2)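 First, seed is blended with potting soil and sown over roughly an inch of soil per cup. Next, the surface is sprayed with an aqueous acetone solution delivering about 0.013–0.800 kg/ha. Finally, cups are grown in the greenhouse and rated after 4–5 weeks.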

AMBEL Ragweed, Common [14] = test: Preemergence herbicidal evaluation, AMBEL; format: in vivo, Ambrosia artemisifolia, L.; settings: preemergence
Summary of the method: as §2

CASOB Sicklepod [15] = test: Preemergence herbicidal evaluation, CASOB; format: in vivo, Cassia obtusifolia, L.; settings: preemergence
Summary of the method: as §2

[16] = tested on: CHEAL Lambsquarters, Common; test: Preemergence herbicidal evaluation, CHEAL; format: in vivo, Chenopodium album, L.; settings: preemergence
Summary of the method: as §2

ECHOG Barnyardgrass [17] = test: Preemergence herbicidal evaluation, ECHOG; format: in vivo, Echinochloa crus-galli, (L.) Beau; settings: preemergence
Summary of the method: as §2

GALAP Galium [18] = test: Preemergence herbicidal evaluation, GALAP; format: in vivo, Galium aparine; settings: preemergence
Summary of the method: as §2

[19] = tested on: IPOHE Morningglory, Ivyleaf; test: Preemergence herbicidal evaluation, IPOHE; format: in vivo, Ipomoea hederacea, (L.) Jacq.; settings: preemergence
Summary of the method: as §2

SETVI Foxtail, Green [20] = test: Preemergence herbicidal evaluation, SETVI; format: in vivo, Setaria viridis, (L.) Beau; settings: preemergence
Summary of the method: as §2

GLXMAW Soybean, Williams [21] = test: Preemergence herbicidal evaluation, GLXMAW; format: in vivo, Glycine max, (L.) Merr. cv Williams; settings: preemergence
Summary of the method: as §2

[22] = tested on: TRZAWR Wheat, Winter, cv Riband; test: Preemergence herbicidal evaluation, TRZAWR; format: in vivo, Triticum aestivum; settings: preemergence
Summary of the method: as §2

ORYSAT Rice, Tebonnet [23] = test: Preemergence herbicidal evaluation, ORYSAT; format: in vivo, Oryza sativa, (L.); settings: preemergence
Summary of the method: as §2

ZEAMX Corn, Field [24] = test: Preemergence herbicidal evaluation, ZEAMX; format: in vivo, Zea mays, L. (Sammel-Bezeichnung); settings: preemergence
Summary of the method: as §2

## COc1ccc(-n2nnc3cc(F)c(-n4c(=O)cc(C(F)(F)F)n(C)c4=O)cc32)c(C)c1 [Example 24]
ABUTH Velvetleaf [1]; 0.008 kg/ha
  Postemergence herbicidal rating ABUTH: 3.0
ABUTH Velvetleaf [1]; 0.016 kg/ha
  Postemergence herbicidal rating ABUTH: 9.0
ABUTH Velvetleaf [1]; 0.032 kg/ha
  Postemergence herbicidal rating ABUTH: 9.0
ABUTH Velvetleaf [1]; 0.062 kg/ha
  Postemergence herbicidal rating ABUTH: 9.0
AMBEL Ragweed, Common [2]; 0.008 kg/ha
  Postemergence herbicidal rating AMBEL: 0.0
AMBEL Ragweed, Common [2]; 0.016 kg/ha
  Postemergence herbicidal rating AMBEL: 0.0
AMBEL Ragweed, Common [2]; 0.032 kg/ha
  Postemergence herbicidal rating AMBEL: 0.0
AMBEL Ragweed, Common [2]; 0.062 kg/ha
  Postemergence herbicidal rating AMBEL: 2.0
CASOB Sicklepod [3]; 0.008 kg/ha
  Postemergence herbicidal rating CASOB: 0.0
CASOB Sicklepod [3]; 0.016 kg/ha
  Postemergence herbicidal rating CASOB: 0.0
CASOB Sicklepod [3]; 0.032 kg/ha
  Postemergence herbicidal rating CASOB: 0.0
CASOB Sicklepod [3]; 0.062 kg/ha
  Postemergence herbicidal rating CASOB: 0.0
[4]; 0.008 kg/ha
  Postemergence herbicidal rating CHEAL: 3.0
[4]; 0.016 kg/ha
  Postemergence herbicidal rating CHEAL: 3.0
[4]; 0.032 kg/ha
  Postemergence herbicidal rating CHEAL: 3.0
[4]; 0.062 kg/ha
  Postemergence herbicidal rating CHEAL: 4.0
ECHOG Barnyardgrass [5]; 0.008 kg/ha
  Postemergence herbicidal rating ECHCG: 0.0
ECHOG Barnyardgrass [5]; 0.016 kg/ha
  Postemergence herbicidal rating ECHCG: 0.0
ECHOG Barnyardgrass [5]; 0.032 kg/ha
  Postemergence herbicidal rating ECHCG: 0.0
ECHOG Barnyardgrass [5]; 0.062 kg/ha
  Postemergence herbicidal rating ECHCG: 0.0
GALAP Galium [6]; 0.008 kg/ha
  Postemergence herbicidal rating GALAP: 0.0
GALAP Galium [6]; 0.016 kg/ha
  Postemergence herbicidal rating GALAP: 1.0
GALAP Galium [6]; 0.032 kg/ha
  Postemergence herbicidal rating GALAP: 2.0
GALAP Galium [6]; 0.062 kg/ha
  Postemergence herbicidal rating GALAP: 3.0
[7]; 0.008 kg/ha
  Postemergence herbicidal rating IPOHE: 0.0
[7]; 0.016 kg/ha
  Postemergence herbicidal rating IPOHE: 3.0
[7]; 0.032 kg/ha
  Postemergence herbicidal rating IPOHE: 4.0
[7]; 0.062 kg/ha
  Postemergence herbicidal rating IPOHE: 4.0
SETVI Foxtail, Green [8]; 0.008 kg/ha
  Postemergence herbicidal rating SETVI: 0.0
SETVI Foxtail, Green [8]; 0.016 kg/ha
  Postemergence herbicidal rating SETVI: 0.0
SETVI Foxtail, Green [8]; 0.032 kg/ha
  Postemergence herbicidal rating SETVI: 0.0
SETVI Foxtail, Green [8]; 0.062 kg/ha
  Postemergence herbicidal rating SETVI: 0.0
GLXMAW Soybean, Williams [9]; 0.008 kg/ha
  Postemergence herbicidal rating GLXMAW: 3.0
GLXMAW Soybean, Williams [9]; 0.016 kg/ha
  Postemergence herbicidal rating GLXMAW: 3.5
GLXMAW Soybean, Williams [9]; 0.032 kg/ha
  Postemergence herbicidal rating GLXMAW: 4.0
GLXMAW Soybean, Williams [9]; 0.062 kg/ha
  Postemergence herbicidal rating GLXMAW: 4.0
[10]; 0.008 kg/ha
  Postemergence herbicidal rating TRZAWR: 2.5
[10]; 0.016 kg/ha
  Postemergence herbicidal rating TRZAWR: 2.5
[10]; 0.032 kg/ha
  Postemergence herbicidal rating TRZAWR: 2.5
[10]; 0.062 kg/ha
  Postemergence herbicidal rating TRZAWR: 3.5
ORYSAT Rice, Tebonnet [11]; 0.008 kg/ha
  Postemergence herbicidal rating ORYSAT: 2.0
ORYSAT Rice, Tebonnet [11]; 0.016 kg/ha
  Postemergence herbicidal rating ORYSAT: 2.0
ORYSAT Rice, Tebonnet [11]; 0.032 kg/ha
  Postemergence herbicidal rating ORYSAT: 2.0
ORYSAT Rice, Tebonnet [11]; 0.062 kg/ha
  Postemergence herbicidal rating ORYSAT: 2.5
ZEAMX Corn, Field [12]; 0.008 kg/ha
  Postemergence herbicidal rating ZEAMX: 3.5
ZEAMX Corn, Field [12]; 0.016 kg/ha
  Postemergence herbicidal rating ZEAMX: 3.5
ZEAMX Corn, Field [12]; 0.032 kg/ha
  Postemergence herbicidal rating ZEAMX: 3.5
ZEAMX Corn, Field [12]; 0.062 kg/ha
  Postemergence herbicidal rating ZEAMX: 4.5
ABUTH Velvetleaf [13]; rate 0.016 kg/ha
  ABUTH herbicidal rating: 0.0
ABUTH Velvetleaf [13]; rate 0.032 kg/ha
  ABUTH herbicidal rating: 6.0
ABUTH Velvetleaf [13]; rate 0.062 kg/ha
  ABUTH herbicidal rating: 9.0
ABUTH Velvetleaf [13]; rate 0.125 kg/ha
  ABUTH herbicidal rating: 9.0
AMBEL Ragweed, Common [14]; rate 0.016 kg/ha
  AMBEL herbicidal rating: 0.0
AMBEL Ragweed, Common [14]; rate 0.032 kg/ha
  AMBEL herbicidal rating: 0.0
AMBEL Ragweed, Common [14]; rate 0.062 kg/ha
  AMBEL herbicidal rating: 0.0
AMBEL Ragweed, Common [14]; rate 0.125 kg/ha
  AMBEL herbicidal rating: 0.0
CASOB Sicklepod [15]; rate 0.016 kg/ha
  CASOB herbicidal rating: 0.0
CASOB Sicklepod [15]; rate 0.032 kg/ha
  CASOB herbicidal rating: 0.0
CASOB Sicklepod [15]; rate 0.062 kg/ha
  CASOB herbicidal rating: 0.0
CASOB Sicklepod [15]; rate 0.125 kg/ha
  CASOB herbicidal rating: 0.0
[16]; rate 0.016 kg/ha
  CHEAL herbicidal rating: 0.0
[16]; rate 0.032 kg/ha
  CHEAL herbicidal rating: 0.0
[16]; rate 0.062 kg/ha
  CHEAL herbicidal rating: 9.0
[16]; rate 0.125 kg/ha
  CHEAL herbicidal rating: 9.0
ECHOG Barnyardgrass [17]; rate 0.016 kg/ha
  ECHCG herbicidal rating: 0.0
ECHOG Barnyardgrass [17]; rate 0.032 kg/ha
  ECHCG herbicidal rating: 0.0
ECHOG Barnyardgrass [17]; rate 0.062 kg/ha
  ECHCG herbicidal rating: 3.0
ECHOG Barnyardgrass [17]; rate 0.125 kg/ha
  ECHCG herbicidal rating: 7.0
GALAP Galium [18]; rate 0.016 kg/ha
  GALAP herbicidal rating: 0.0
GALAP Galium [18]; rate 0.032 kg/ha
  GALAP herbicidal rating: 0.0
GALAP Galium [18]; rate 0.062 kg/ha
  GALAP herbicidal rating: 0.0
[19]; rate 0.016 kg/ha
  IPOHE herbicidal rating: 0.0
[19]; rate 0.032 kg/ha
  IPOHE herbicidal rating: 0.0
[19]; rate 0.062 kg/ha
  IPOHE herbicidal rating: 0.0
[19]; rate 0.125 kg/ha
  IPOHE herbicidal rating: 0.0
SETVI Foxtail, Green [20]; rate 0.016 kg/ha
  SETVI herbicidal rating: 0.0
SETVI Foxtail, Green [20]; rate 0.032 kg/ha
  SETVI herbicidal rating: 0.0
SETVI Foxtail, Green [20]; rate 0.062 kg/ha
  SETVI herbicidal rating: 9.0
SETVI Foxtail, Green [20]; rate 0.125 kg/ha
  SETVI herbicidal rating: 9.0
GLXMAW Soybean, Williams [21]; rate 0.016 kg/ha
  GLXMAW herbicidal rating: 0.0
GLXMAW Soybean, Williams [21]; rate 0.032 kg/ha
  GLXMAW herbicidal rating: 1.0
GLXMAW Soybean, Williams [21]; rate 0.062 kg/ha
  GLXMAW herbicidal rating: 2.0
GLXMAW Soybean, Williams [21]; rate 0.125 kg/ha
  GLXMAW herbicidal rating: 5.0
[22]; rate 0.016 kg/ha
  TRZAWR herbicidal rating: 0.0
[22]; rate 0.032 kg/ha
  TRZAWR herbicidal rating: 0.0
[22]; rate 0.062 kg/ha
  TRZAWR herbicidal rating: 1.0
[22]; rate 0.125 kg/ha
  TRZAWR herbicidal rating: 1.0
ORYSAT Rice, Tebonnet [23]; rate 0.016 kg/ha
  ORYSAT herbicidal rating: 0.0
ORYSAT Rice, Tebonnet [23]; rate 0.032 kg/ha
  ORYSAT herbicidal rating: 0.0
ORYSAT Rice, Tebonnet [23]; rate 0.062 kg/ha
  ORYSAT herbicidal rating: 1.0
ORYSAT Rice, Tebonnet [23]; rate 0.125 kg/ha
  ORYSAT herbicidal rating: 1.0
ZEAMX Corn, Field [24]; rate 0.016 kg/ha
  ZEAMX herbicidal rating: 0.0
ZEAMX Corn, Field [24]; rate 0.032 kg/ha
  ZEAMX herbicidal rating: 0.0
ZEAMX Corn, Field [24]; rate 0.062 kg/ha
  ZEAMX herbicidal rating: 4.0
ZEAMX Corn, Field [24]; rate 0.125 kg/ha
  ZEAMX herbicidal rating: 6.0
